In PubChem BioAssay AID179 (DTP/NCI, 2004) one finds EC50, IC50 and outcome data, which are given here for 30 compounds.

The source made the active and inactive calls.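 The calls were made as follows: active = compounds giving half or more protection of infected cells from virus-caused growth loss, again on retest; inactive = the rest.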

The test relates to CEM cells HIV-1 protection, formazan growth assay. Kind of test: NCI AIDS Antiviral Assay. Conditions: for IC50: measured here: growth of uninfected CEM cells. The procedure, abridged: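 Steps: treat uninfected and HIV-1-infected human CEM cells at five drug levels; quantify growth by soluble formazan; retest any compound reaching 50% protection; classify actives from the retest.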

As a reminder, the EC50 is the concentration at which the effect is half-maximal. Broadly, the IC50 is the point on the concentration scale where inhibition reaches its midpoint. Lower therefore signals greater potency in that assay. Consider `CC1(C)OCC2OC(n3cnc4c(N)nc(Cl)nc43)C(OS(C)(=O)=O)C2O1` (stereo not given), for which the EC50 was more than 11.2 µM and the IC50 amounted to 7.59 µM.

As to `S=C(N/N=C/c1ccccn1)N1CCCCCC1`, the EC50 was more than 0.2 µM and the IC50 turned out to be 0.0105 µM.

Regarding `NC(=O)c1ccccc1NC(=O)C(=O)Cc1nc2ccccc2[nH]c1=O`, the EC50 was more than 269 µM and the IC50 was more than 269 µM. As for `O=c1c2c([nH]n1-c1ccccc1)-c1ccccc1CS2`, the EC50 is more than 204 µM and the half-inhibitory concentration (IC50) amounted to 135 µM.

For `CN(CCO)c1nc2c(c(=O)[nH]1)CNCC2`, the EC50 was more than 288 µM and the IC50 is more than 288 µM. In the case of `COC(=O)[C@@H]1N2C(=O)C=NO[C@H]2SC1(C)C`, the EC50 is more than 1020 µM and the IC50 was more than 1020 µM.

Consider `COC12C=CC(CC1)c1c2c(O)c2nc(C)c(C)nc2c1O` (stereo not given), for which the EC50 is more than 200 µM and the IC50 was 3.16 µM. For `COC(=N)c1ncn(Cc2ccccc2)c1N` the same measures were more than 200 µM and 158 µM. Turning to `O=c1c2cccnc2ncn1CCCN1CCCC1`, the outcome was inactive. Consider `COC(=O)c1ccc(NCc2cc(O)c3ccccc3c2O)cc1`, for which the EC50 was more than 200 µM and the IC50 turned out to be 3.02 µM. With `CC1C[C@@]23C4CCCN2CC2OC2[C@@]13C1CC4OC1=O` (stereo not given in full), the EC50 is more than 182 µM and the IC50 was more than 182 µM. Consider `N#CC1=C(C#N)/C(=C(\C#N)C(C#N)C#N)N=C1N`, for which the EC50 is more than 100 µM and the IC50 was determined as 37.2 µM. For `COc1c(CCl)cc(-c2cc(=O)c3ccccc3s2)cc1CCl` the same measures were more than 200 µM and more than 200 µM. For `COc1ccc(N2C(=O)C3c4[nH]c5ccc([N+](=O)[O-])cc5c4C4CCC(C(C)(C)C)CC4C3C2=O)cc1` (stereo not given) the same measures were more than 200 µM and 18.2 µM.

Consider `CC1C[P+](c2ccccc2)(c2ccccc2)Cc2ccccc21` (stereo not given), for which the EC50 is more than 708 µM and the half-inhibitory concentration (IC50) is 2.57 µM. `CCN(C(=O)N[C@@H](Cc1ccccc1)C(=O)N[C@@H](CC(C)C)C(=O)NC)c1ccccc1`: the EC50 was more than 200 µM and the IC50 stood at 195 µM. For `CCc1cc2c(oc3cc(C)ccc32)c(=O)n1C` the same measures were more than 200 µM and 97.7 µM. For the compound `CCOC(=O)C1/C(=N/N)CN2CCc3c([nH]c4ccccc34)C12C(=O)OCC` (stereo not given), the EC50 was more than 158 µM and the IC50 was 145 µM. For the compound `CC(C)(O)CCC(O)[C@](C)(O)C1CCC2(O)C3=CC(=O)[C@@H]4C[C@@H](O)[C@@H](O)C[C@]4(C)C3CC[C@]12C` (stereo not given in full), the result was inactive. For `O=C(/N=N/C(=O)N1CCOCC1)N1CCOCC1`, the EC50 is 75.9 µM and the IC50 came to 87.1 µM.

`O=C1NC2OC(CO)C(O)C(O)C2O1` (stereo not given): the EC50 was more than 200 µM and the half-maximal inhibitory concentration (IC50) was more than 200 µM. Take `CC1C(=O)CCC1C(Sc1ccccc1)(Sc1ccccc1)Sc1ccccc1` (stereo not given): the outcome was inactive. The same measure, in the same setting: then `O=C1/C(=C\c2ccc(Cl)cc2Cl)Sc2scc(-c3cccc([N+](=O)[O-])c3)[n+]21`, with “inactive”. In the case of `Cc1csc2n(C)c(=O)c3ccccc3[n+]12`, the EC50 was 191 µM and the IC50 is more than 200 µM. Take `Oc1cc(O)c2ccc(-c3ccc(O)c(O)c3)[o+]c2c1`: the EC50 was more than 200 µM and the IC50 worked out at 12.3 µM.

With `COc1nccnc1NS(=O)(=O)c1ccc(N)cc1`, the EC50 was more than 200 µM and the IC50 was more than 200 µM. Regarding `CC1C2C=CC1C(c1c3ccc(=O)cc-3oc3cc(O)ccc13)C2C(=O)O` (stereo not given), the concentration for a half-maximal effect (EC50) is 2.4 µM and the IC50 turned out to be 51.3 µM.

`C/C=C\C(=O)C#Cc1cnc(OC)nc1OC`: the EC50 is more than 2 µM and the IC50 was 0.0912 µM.

Regarding `O=C(O)CCC12CC[C@]3(O)OC(=O)[C@H](C[C@@H]1C(=O)O)C23` (stereo not given in full), the outcome was inactive. On to `CC(=O)NCCC1CN(C(=O)/C=C\C#C[Si](C)(C)C)c2ccccc21` (stereo not given), for which the EC50 was more than 200 µM and the IC50 was found to be 19.5 µM.
